Laboratory results taken from ChEMBL document CHEMBL1127611 (J Med Chem, 1994).

Molecular target: T1, Vesicular acetylcholine transporter (Torpedo californica, UniProt P81721)
T1 sequence (P81721 whole entry): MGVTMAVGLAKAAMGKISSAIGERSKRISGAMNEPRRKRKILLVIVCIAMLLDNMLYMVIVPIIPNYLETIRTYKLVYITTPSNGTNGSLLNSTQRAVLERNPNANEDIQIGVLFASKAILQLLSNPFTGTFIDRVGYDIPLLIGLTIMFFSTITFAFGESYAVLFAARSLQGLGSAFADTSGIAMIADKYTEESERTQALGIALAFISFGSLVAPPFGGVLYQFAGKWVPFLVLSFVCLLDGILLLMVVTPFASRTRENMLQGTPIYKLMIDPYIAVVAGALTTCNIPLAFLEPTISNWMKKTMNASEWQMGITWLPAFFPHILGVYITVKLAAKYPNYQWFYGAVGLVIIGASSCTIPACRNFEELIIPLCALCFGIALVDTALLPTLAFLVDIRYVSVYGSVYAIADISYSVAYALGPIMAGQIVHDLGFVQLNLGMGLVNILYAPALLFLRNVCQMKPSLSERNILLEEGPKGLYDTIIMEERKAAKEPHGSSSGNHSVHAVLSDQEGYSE
Assay: In vitro binding affinity to vesamicol receptor using [3H]vesamicol.
Parameters: species or system Tetronarce californica

| SMILES | Ki |
| --- | --- |
| O[C@@H]1CCN(Cc2ccccc2I)C[C@H]1N1CCC(c2ccccc2)CC1 | 0.147 nM |
| O[C@@H]1CCN(Cc2ccc(I)cc2)C[C@H]1N1CCC2(CCc3ccccc32)CC1 | 0.8 nM |
| O[C@@H]1Cc2ccccc2C[C@H]1N1CCC2(C=Cc3c(Br)cccc32)CC1 | 0.212 nM |
| O[C@@H]1CCCC[C@H]1N1CCC2(CCc3ccccc32)CC1 | 7.59 nM |
| O[C@@H]1CCN(Cc2cccc(I)c2)C[C@H]1N1CCC2(CCCc3ccccc32)CC1 | 0.856 nM |
| O[C@@H]1Cc2ccccc2C[C@H]1N1CCC2(CC1)C(Br)=Cc1ccccc12 | 0.41 nM |
| O[C@@H]1Cc2ccccc2C[C@H]1N1CCC2(C=Cc3ccc(Br)cc32)CC1 | 1.4 nM |
| O[C@@H]1Cc2ccccc2C[C@H]1N1CCC2(C=Cc3cc(Br)ccc32)CC1 | 0.271 nM |
| O[C@@H]1CCN(Cc2ccccc2I)C[C@H]1N1CCC2(CCc3ccccc32)CC1 | 0.98 nM |
| O[C@@H]1CCN(Cc2cccc(I)c2)C[C@H]1N1CCC(c2ccccc2)CC1 | 0.063 nM |
| O[C@@H]1CCN(Cc2ccccc2I)C[C@H]1N1CCC2(CCCc3ccccc32)CC1 | 5.8 nM |
| O[C@@H]1CCN(Cc2ccc(I)cc2)C[C@H]1N1CCC(c2ccccc2)CC1 | 0.05 nM |
| O[C@@H]1CCN(Cc2ccc(F)cc2)C[C@H]1N1CCC2(CCCc3ccccc32)CC1 | 2.64 nM |
| O[C@@H]1CCN(Cc2cccc(I)c2)C[C@H]1N1CCC2(C=Cc3ccccc32)CC1 | 0.264 nM |
| O[C@@H]1CCN(Cc2ccccc2I)C[C@H]1N1CCC2(C=Cc3ccccc32)CC1 | 0.798 nM |
| O[C@@H]1CCN(Cc2ccc(I)cc2)C[C@H]1N1CCC2(CCCc3ccccc32)CC1 | 0.638 nM |
| O[C@@H]1CCCC[C@H]1N1CCC2(C=Cc3ccccc32)CC1 | 6.93 nM |
| Nc1cccc2c1C[C@@H](N1CCC(c3ccccc3)CC1)[C@H](O)C2 | 0.0065 nM |
| O[C@@H]1CCN(Cc2ccc(F)cc2)C[C@H]1N1CCC2(CCc3ccccc32)CC1 | 0.36 nM |
| O[C@@H]1Cc2ccccc2C[C@H]1N1CCC2(CCCc3ccccc32)CC1 | 18.4 nM |
| O[C@@H]1Cc2ccccc2C[C@H]1N1CCC2(CCc3ccccc32)CC1 | 0.36 nM |
| O[C@@H]1Cc2ccccc2C[C@H]1N1CCC2(C=Cc3ccccc32)CC1 | 0.121 nM |
| O[C@@H]1CCCC[C@H]1N1CCC2(CCCc3ccccc32)CC1 | 24.2 nM |
| O[C@@H]1CCN(Cc2ccc(F)cc2)C[C@H]1N1CCC2(C=Cc3ccccc32)CC1 | 0.248 nM |
| O[C@@H]1CCN(Cc2ccc(I)cc2)C[C@H]1N1CCC2(C=Cc3ccccc32)CC1 | 0.762 nM |
